# In US6780875B2, “Quinoline-4-carboxamide derivatives as NK-3 and NK-2 receptor antagonists” (SmithKline Beecham S.p.A., priority 1998, dated 2004):
# Structures can show the parent of a compound that is named as a salt.
row,melting point,Structure (SMILES)
1,242 to 245 °C,CC[C@H](NC(=O)c1c(CN2CCC3(CC2)C(=O)NCN3c2ccccc2)c(-c2ccccc2)nc2ccccc12)c1ccccc1
2,195 to 197 °C,CC[C@H](NC(=O)c1c(CN2CCC(n3c(=O)[nH]c4ccccc43)CC2)c(-c2ccccc2)nc2ccccc12)c1ccccc1
3,204 to 206 °C,C[C@H](NC(=O)c1c(CN2CCC(n3c(=O)[nH]c4ccccc43)CC2)c(-c2ccccc2)nc2ccccc12)C1CCCCC1
4,178 to 210 °C,C[C@H](NC(=O)c1c(CN2CCN(C(=O)Cc3c[nH]cn3)CC2)c(-c2ccccc2)nc2ccccc12)C1CCCCC1
5,176 to 179 °C,C[C@H](NC(=O)c1c(CN2CCN(Cc3ccccc3)CC2)c(-c2ccccc2)nc2ccccc12)C1CCCCC1 (as salt: HCl)
6,261 to 263 °C,"CC[C@H](NC(=O)c1c(CN2CCN(C3CCCCC3)CC2)c(-c2ccccc2)nc2ccccc12)c1ccccc1 (as salt: HCl) [Example 1, 3-(4-Cyclohexyl-piperazin-1-ylmethyl)-2-phenyl-quinoline-4-carboxylic acid ((S)-1-phenyl-propyl)-amide]"
7,168 to 171 °C,"C[C@H](NC(=O)c1c(CN2CCN(CCc3ccccc3)CC2)c(-c2ccccc2)nc2ccccc12)C1CCCCC1 (as salt: HCl) [Example 5, 3-(4-Phenethyl-piperazin-1-ylmethyl)-2-phenyl-quinoline-4-carboxylic acid ((S)-1-cyclohexyl-ethyl)-amide]"
8,182 to 185 °C,"CC[C@H](NC(=O)c1c(CN2CCC(N3CCCCC3)CC2)c(-c2ccccc2)nc2ccccc12)c1ccccc1 (as salt: HCl) [Example 14, 3-[1,4′]Bipiperidinyl-1′-ylmethyl-2-phenyl-quinoline-4-carboxylic acid ((S)-1-phenyl-propyl)-amide]"
9,208 to 210 °C,"C[C@H](NC(=O)c1c(CN2CCC(N3CCCCC3)CC2)c(-c2ccccc2)nc2ccccc12)c1ccccc1 (as salt: HCl) [Example 30, 3-[1,4′]Bipiperidinyl-1′-ylmethyl-2-phenyl-quinoline-4-carboxylic acid ((S)-1-phenyl-ethyl)-amide]"
10,188 to 190 °C,"CCN1CCN(Cc2c(-c3ccccc3)nc3ccccc3c2C(=O)N[C@@H](C)C2CCCCC2)CC1 (as salt: HCl) [Example 37, 3-(4-Ethyl-piperazin-1-ylmethyl)-2-phenyl-quinoline-4-carboxylic acid ((S)-1-cyclohexyl-ethyl)-amide]"
11,196 to 198 °C,"CC[C@H](NC(=O)c1c(CN2CCN3CCCC3C2)c(-c2ccccc2)nc2ccccc12)c1ccccc1 (stereo partly drawn) (as salt: HCl) [Example 49, 3-(Hexahydro-pyrrolo[1,2-a]pyrazin-2-ylmethyl)-2-phenyl-quinoline-4-carboxylic acid ((S)-1-phenyl-propyl)-amide]"
12,180 to 183 °C,"CC(C)N1CCN(Cc2c(-c3ccccc3)nc3ccccc3c2C(=O)N[C@@H](C)C2CCCCC2)CC1 (as salt: hydrochloride) [Example 4, 3-(4-Isopropyl-piperazin-1-ylmethyl)-2-phenyl-quinoline-4-carboxylic acid ((S)-1-cyclohexyl-ethyl)-amide]"
13,180 to 184 °C,"C[C@H](NC(=O)c1c(CN2CCC(N3CCCCC3)CC2)c(-c2ccccc2)nc2ccccc12)C1CCCCC1 (as salt: hydrochloride) [Example 13, 3-[1,4′]Bipiperidinyl-1′-ylmethyl-2-phenyl-quinoline-4-carboxylic acid ((S)-1-cyclohexyl-ethyl)-amide]"
14,208 to 210 °C,"CC[C@H](NC(=O)c1c(CN2CCC(N3CCCCC3)CC2)c(-c2ccccc2)nc2cc(OC)ccc12)c1ccccc1 (as salt: hydrochloride) [Example 67, 3-[1,4′]Bipiperidinyl-1′-ylmethyl-7-methoxy-2-phenyl-quinoline-4-carboxylic acid ((S)-1-phenyl-propyl)-amide]"
15,90 to 95 °C,"CC[C@H](NC(=O)c1c(CN2CCC(c3ccccc3)CC2)c(-c2ccccc2)nc2ccccc12)c1ccccc1 [Example 2, 2-Phenyl-3-(4-phenyl-piperidin-1-ylmethyl)-quinoline-4-carboxylic acid ((S)-1-phenyl-propyl)-amide]"
16,100 °C (dec.),"CC[C@H](NC(=O)c1c(C(c2ccccc2)(N2CCCCC2)N(C)C(C)=O)c(-c2ccccc2)nc2ccccc12)c1ccccc1 (stereo partly drawn) [Example 11, 3-[(Acetyl-methyl-amino)-phenyl-piperidin-1-ylmethyl]-2-phenyl-quinoline-4-carboxylic acid ((S)-1-phenyl-propyl)-amide]"
17,158 to 160 °C,"CC[C@H](NC(=O)c1c(CN2CCN(CCOCCO)CC2)c(-c2ccccc2)nc2ccccc12)c1ccccc1 [Example 15, 3-{4-[2-(2-Hydroxy-ethoxy)-ethyl]-piperazin-1-ylmethyl}-2-phenyl-quinoline-4-carboxylic acid ((S)-1-phenyl-propyl)-amide]"

row,melting point,Structure (SMILES)
1,113 to 115 °C,"COCCN1CCN(Cc2c(-c3ccccc3)nc3ccccc3c2C(=O)N[C@@H](C)C2CCCCC2)CC1 [Example 17, 3-[4-(2-Methoxy-ethyl)-piperazin-1-ylmethyl]-2-phenyl-quinoline-4-carboxylic acid ((S)-1-cyclohexyl-ethyl)-amide]"
2,166 to 168 °C,"CC[C@H](NC(=O)c1c(CN2CCC(N3CCC(O)CC3)CC2)c(-c2ccccc2)nc2ccccc12)c1ccccc1 [Example 18, 3-(4-Hydroxy-[1,4′]bipiperidinyl-1′-ylmethyl)-2-phenyl-quinoline-4-carboxylic acid ((S)-1-phenyl-propyl)-amide]"
3,157 to 165 °C,"CC[C@H](NC(=O)c1c(CN2CCC(N3CCOCC3)CC2)c(-c2ccccc2)nc2ccccc12)c1ccccc1 [Example 19, 3-(4-Morpholin-4-yl-piperidin-1-ylmethyl)-2-phenyl-quinoline-4-carboxylic acid ((S)-1-phenyl-propyl)-amide]"
4,126 to 128 °C,"C[C@H](NC(=O)c1c(CN2CCN(CCOCCO)CC2)c(-c2ccccc2)nc2ccccc12)C1CCCCC1 [Example 20, 3-{4-[2-(2-Hydroxy-ethoxy)-ethyl]-piperazin-1-ylmethyl}-2-phenyl-quinoline-4-carboxylic acid ((S)-1-cyclohexyl-ethyl)-amide]"
5,117 to 119 °C,"CC[C@H](NC(=O)c1c(CN2CCN(C(C)=O)CC2)c(-c2ccccc2)nc2ccccc12)c1ccccc1 [Example 23, 3-(4-Acetyl-piperazin-1-ylmethyl)-2-phenyl-quinoline-4-carboxylic acid ((S)-1-phenyl-propyl)-amide]"
6,150 to 152 °C,"C[C@H](NC(=O)c1c(CN2CCN(C(=O)c3ccccc3)CC2)c(-c2ccccc2)nc2ccccc12)C1CCCCC1 [Example 24, 2-Phenyl-3-[4-(1-phenyl-methanoyl)-piperazin-1-ylmethyl]-quinoline-4-carboxylic acid ((S)-1-cyclohexyl-ethyl)-amide]"
7,149 to 151 °C,"CC(C)C(=O)N1CCN(Cc2c(-c3ccccc3)nc3ccccc3c2C(=O)N[C@@H](C)C2CCCCC2)CC1 [Example 25, 3-[4-(2-Methyl-propanoyl)-piperazin-1-ylmethyl]-2-phenyl-quinoline-4-carboxylic acid ((S)-1-cyclohexyl-ethyl)-amide]"
8,142 to 144 °C,"CC[C@H](NC(=O)c1c(CN2CCN(CCO)CC2)c(-c2ccccc2)nc2ccccc12)c1ccccc1 [Example 28, 3-[4-(2-Hydroxy-ethyl)-piperazin-1-ylmethyl]-2-phenyl-quinoline-4-carboxylic acid ((S)-1-phenyl-propyl)-amide]"
9,95 to 105 °C,"C[C@H](NC(=O)c1c(CN2CCN(CCO)CC2)c(-c2ccccc2)nc2ccccc12)C1CCCCC1 [Example 29, 3-[4-(2-Hydroxy-ethyl)-piperazin-1-ylmethyl]-2-phenyl-quinoline-4-carboxylic acid ((S)-1-cyclohexyl-ethyl)-amide]"
10,180 to 182 °C,"CC[C@H](NC(=O)c1c(CN2CCN(C(=O)c3ccccc3)CC2)c(-c2ccccc2)nc2ccccc12)c1ccccc1 [Example 31, 2-Phenyl-3-[4-(1-phenyl-methanoyl)-piperazin-1-ylmethyl]-quinoline-4-carboxylic acid ((S)-1-phenyl-propyl)-amide]"
11,219 to 221 °C,"C[C@H](NC(=O)c1c(CN2CCC(C(N)=O)CC2)c(-c2ccccc2)nc2ccccc12)C1CCCCC1 [Example 36, 3-(4-Carbamoyl-piperidin-1-ylmethyl)-2-phenyl-quinoline-4-carboxylic acid ((S)-1-cyclohexyl-ethyl)-amide]"
12,135 to 137 °C,"C[C@H](NC(=O)c1c(CN2CCC(N3CCOCC3)CC2)c(-c2ccccc2)nc2ccccc12)C1CCCCC1 [Example 42, 3-(4-Morpholin-4-yl-piperidin-1-ylmethyl)-2-phenyl-quinoline-4-carboxylic acid ((S)-1-cyclohexyl-ethyl)-amide]"
13,150 to 160 °C,"C[C@H](NC(=O)c1c(CN2CCC(N3CCC(O)CC3)CC2)c(-c2ccccc2)nc2ccccc12)C1CCCCC1 [Example 43, 3-(4-Hydroxy-[1,4′]bipiperidinyl-1′-ylmethyl)-2-phenyl-quinoline-4-carboxylic acid ((S)-1-cyclohexyl-ethyl)-amide]"
14,173 to 175 °C,"C[C@H](NC(=O)c1c(CN2CCN(C(=O)CN(C)C)CC2)c(-c2ccccc2)nc2ccccc12)C1CCCCC1 [Example 46, 3-[4-(2-Dimethylamino-ethanoyl)-piperazin-1-ylmethyl]-2-phenyl-quinoline-4-carboxylic acid ((S)-1-cyclohexyl-ethyl)-amide]"
15,104 to 106 °C,"CCN(CC)CCC(=O)N1CCN(Cc2c(-c3ccccc3)nc3ccccc3c2C(=O)N[C@@H](C)C2CCCCC2)CC1 [Example 47, 3-[4-(3-Diethylamino-propanoyl)-piperazin-1-ylmethyl]-2-phenyl-quinoline-4-carboxylic acid ((S)-1-cyclohexyl-ethyl)-amide]"
16,162 to 163 °C,"C[C@H](NC(=O)c1c(CN2CCN(C(=O)CN3CCN(C)CC3)CC2)c(-c2ccccc2)nc2ccccc12)C1CCCCC1 [Example 48, 3-{4-[2-(4-Methyl-piperazin-1-yl)-ethanoyl]-piperazin-1-ylmethyl}-2-phenyl-quinoline-4-carboxylic acid ((S)-1-cyclohexyl-ethyl)-amide]"
